{"source": "patent US8691571B1", "about": "“Extending tissue preservation” (University of South Florida, priority 1998, dated 2014)", "origin": "cited, not measured here", "tested_on": "rabbit cornea", "details": "addition to storage medium; without changing metabolic activity for at least 11 days", "data": [{"smiles": "CC(O)CC(=O)O", "note": "(stereo not drawn) [beta-hydroxy butyrate]", "values": [{"measurement": "diminished lactic acid concentration of rabbit cornea", "value": 85, "unit": "%"}]}]}
